Like-named read-outs stand apart in the source and are kept apart here. Marks after values point to notes of the source that are not given here. Each block holds one compound with its values, some of them ahead of it. Where a SMILES comes first, the peptide text is derived from it. [ ]: non-standard residue; d: D form. The star is where a group is joined. Dolaproine = CO[C@@H]([C@@H]1CCCN1)[C@@H](C)C(=O)O; Dil = CC[C@H](C)[C@H](NC)[C@@H](CC(=O)O)OC; X1 = C[C@@H](N*)[C@@H](O)c1ccccc1; NMeV = CN[C@H](C(=O)O)C(C)C
Columns and labels:
CYP2B6 mRNA = CYP2B6 mRNA level in human hepatocytes after 48 h treatment (RT-PCR); format: cell-based; conditions: 48 h, 10 nM
Excerpt: (§1) 12.5 (Systat Software, Inc.; San Jose, CA, USA). […] 1.1 (Systat Software, Inc.).

CYP2B6 = assay: CYP2B6-catalyzed bupropion hydroxylase activity in human hepatocytes after 48 h treatment; conditions: human, 48 h, 10 nM
Protocol: (§2) Samples were incubated for 48 h at 37 °C in 5% CO2, and the medium was exchanged with 250 μL of fresh medium containing drugs or the vehicle every 24 h.
(§3) The effects of mertansine on CYP1A2, CYP2B6, and CYP3A4 activities were evaluated. […] Mixtures were vortexed for 2 min and then centrifuged at 13,000 g for 4 min at 4 °C. The supernatant (40 µL) was diluted with 60 µL of deionized water and then mixed for 2 min by vortexing. An aliquot (5 µL) was analyzed using LC-MS/MS [37], and CYP1A2, CYP2B6, and CYP3A4 enzyme activities were expressed as formation rates (pmol/million cells/min).
(§4) The percentage changes in enzymatic activities were calculated as (CYP activity with test compound treatment/CYP activity with vehicle control treatment) × 100. The IC50 (the concentration of the inhibitor needed for half-maximal inhibition) values were calculated using SigmaPlot ver. […] Ki (the inhibition constant) and the inhibition mode of UGT1A1, UGT1A3, and UGT1A4 activities were determined using Enzyme Kinetics ver. 1.1 (Systat Software, Inc.).

[1] = test system: CYP1A2, CYP2B6, and CYP3A4 mRNA; design: method as in PMID 22752008; conditions: three human hepatocytes, cited from earlier work
CYP activities = test system: CYP activities; design: method as in PMID 22752008; conditions: three human hepatocytes, cited from earlier work
CYP1A2 mRNA = CYP1A2 mRNA level in human hepatocytes after 48 h treatment (RT-PCR); format: cell-based; conditions: 48 h, 50 µM
Excerpt: as §1

UGT1A1 mRNA = UGT1A1 mRNA level in human hepatocytes after 48 h treatment (RT-PCR); conditions: 48 h
CYP1A2 = assay: CYP1A2-catalyzed phenacetin O-deethylase activity in human hepatocytes after 48 h treatment; conditions: 48 h; for Enzyme Activities: CYP1A2-catalyzed phenacetin O-deethylase activity: Omeprazole 50 μM
Protocol: as §2, §3, §4

UGT1A4 mRNA = UGT1A4 mRNA level in human hepatocytes after 48 h treatment (RT-PCR); conditions: 50 μM omeprazole, 48 h, range over three human hepatocytes
CYP2C8 mRNA = conditions: human, hepatocytes, 48 h, 10 μM
CYP2C19 mRNA = conditions: human, hepatocytes, 48 h, 10 μM
[2] = test system: HER2-positive metastatic breast cancer; conditions: five randomized clinical trials, 3,720 patients; cited from earlier work

Increase of CYP2B6 mRNA levels (CYP2B6 mRNA): 5.6–8.7 fold
Increase of CYP2B6-mediated bupropion hydroxylase activity (CYP2B6): 3.8–15.7 fold
Compound: Clc1ccc(-c2nc3sccn3c2C=NOCc2ccc(Cl)c(Cl)c2)cc1 [CITCO, 6-(4-chlorophenyl)imidazo[2,1-b](1,3)thiazole-5-carbaldehyde-O-(3,4-dichlorobenzyl)oxime]

Compound: CC[C@H](C)[C@@H]([C@@H](CC(=O)N1CCC[C@H]1[C@H](OC)[C@@H](C)C(=O)N[C@H](C)[C@@H](O)c1ccccc1)OC)N(C)C(=O)[C@@H](NC(=O)[C@@H](NC)C(C)C)C(C)C [MMAE, monomethyl auristatin E] (H-[NMeV]V[Dil][Dolaproine]-X1)
Suppression of CYP1A2, CYP2B6, and CYP3A4 mRNA expression ([1]; 100 nM MMAE): 61–90%
Suppression of CYP1A2, CYP2B6, and CYP3A4 mRNA expression ([1]; 1000 nM MMAE): 95–97%
Decrease of CYP activities (CYP activities; 100 nM MMAE): 40–71%
Decrease of CYP activities (CYP activities; 1000 nM MMAE): 45–81%

Increase of CYP1A2 mRNA levels (CYP1A2 mRNA): 58.7–299.3 fold
Increase of CYP1A2-mediated phenacetin O-deethylase activity (CYP1A2; 50 µM omeprazole, vs vehicle, range over three human hepatocytes): 11.7–61.8 fold
Enzyme Activities: CYP1A2-catalyzed phenacetin O-deethylase activity (CYP1A2; Lot 319): 18.5 ± 3.3 ^a pmol/10^6 Cells/min
Enzyme Activities: CYP1A2-catalyzed phenacetin O-deethylase activity (CYP1A2; Lot 321): 89.45 ± 4.52 ^a pmol/10^6 Cells/min
Enzyme Activities: CYP1A2-catalyzed phenacetin O-deethylase activity (CYP1A2; Lot 361): 81.0 ± 0.53 ^a pmol/10^6 Cells/min
Compound: COc1ccc2[nH]c([S+]([O-])Cc3ncc(C)c(OC)c3C)nc2c1 (centres unmarked) [Omeprazole, omeprazole]
Increase of UGT1A1 mRNA levels (UGT1A1 mRNA; 50 μM omeprazole, range over three human hepatocytes): 3.9–7.0 fold
UGT1A1 mRNA (Fold Change) (UGT1A1 mRNA; Omeprazole 50 μM, Lot 319): 6.97 ± 0.94 Fold Change
Increase of UGT1A4 mRNA levels (UGT1A4 mRNA): 3.3–4.1 fold

Increase of CYP2C8 mRNA levels (CYP2C8 mRNA): 3.7–4.8 fold
Increase of CYP2C19 mRNA levels (CYP2C19 mRNA): 2.0–2.2 fold
Compound: CO[C@H]1/C=C/O[C@@]2(C)Oc3c(C)c(O)c4c(O)c(c(/C=N/N5CCN(C)CC5)c(O)c4c3C2=O)NC(=O)/C(C)=C\C=C\[C@H](C)[C@H](O)[C@@H](C)[C@@H](O)[C@@H](C)[C@H](OC(C)=O)[C@@H]1C [Rifampin, rifampin]

Compound: trastuzumab emtansine [T-DM1]
Progression-free survival and overall survival compared to other anti-HER2 therapies [2]: significantly prolonged
